In brackets after ≈: the same amount, converted by molar mass.
Legend:
Format in all cases: cell-based
[1] = tested on: E. coli NB27273-CDY0026 (parent); assay: MIC by broth microdilution, isogenic E. coli parent strain; settings: Escherichia coli, read-out: Strain 1 MIC
Procedure: (§1) Bacterial isolates were cultivated from −70° C. frozen stocks by two consecutive overnight passages at 35° C. in ambient air on 5% blood agar (Remel, Lenexa, Kans.). Quality control and P. aeruginosa ATCC 27853) is from the American Type Culture Collection (ATCC; Rockville, Md.) and PAO1 was received from Dr. K. Poole.
(§2) Strain NB27273 (BW25113 pspB::Km^r) was obtained from the Keio transposon insertion collection. The strain has the pspB gene replaced by a kanamycin resistance marker (BW25113 pspB::Km^r). This strain was cured of the transposon in pspB via FLP recombinase using published methodology. The resulting strain, BW25113 pspB, was used as a host for multicopy vectors expressing key β-lactamases. Multicopy plasmids directing constitutive expression of β-lactamases were established as follows: Synthetic, codon optimized genes encoding E. coli KPC2 and SHV12 β-lactamases were made by DNA2.0 (Palo Alto, Calif.). Each of the synthetic fragments were designed to contain NotI and NcoI restriction sites at their termini, allowing ligation into a NotI/NcoI digested pET28a(+) derivative for protein expression. […] The codon optimized nucleotide sequences and relevant primer recognition information is shown below:
(§3) The PCR products were then digested with XhoI and EcoRI and ligated into similarly digested plasmid pAH63-pstS(BlaP). Plasmid pAH63-pstS(BlaP) is a derivative of plasmid pAH63 (J Bacteriol: 183(21): 6384-6393) made by cloning the TEM-1 (bla) promoter and signal peptide encoding region from plasmid pBAD (J Bacteriol. 1995 July 177(14):4121-30) into plasmid pAH63. This fragment was PCR amplified from pBAD using primer pair E192 (ttcaCTGCAGtgaacgttgcgaagcaacggC) (SEQ ID NO:13) and E194 (TCGAggatcctcgagagcaaaaacaggaaggcaaaatgccg) (SEQ ID NO:14), digested with PstI and BamHI and inserted into similarly digested plasmid pAH63. Therefore, expression of β-lactamases from pAH63-pstS(BlaP) based constructs is constitutive and the signal sequence is provided to direct these proteins to the periplasm. […] To accomplish this, the inserts encompassing the β-lactamase genes, with the associated TEM promoter and signal sequences, were PCR amplified from their corresponding vectors using primer E269 (ccgTCTAGAcggatggcctttttgcgtttc) (SEQ ID NO:15) and E202 (aatcGAATTCttactgaccattaacgcccaagc) (SEQ ID NO:16) for the KPC2 construct and E204 (aatcGAATTCttaacgctgccagtgctcaatc) (SEQ ID NO:17) for the SHV12 construct. These fragments were then digested with XbaI and EcoRI, and each was inserted into pBAD18-kan that had been digested with the same enzymes to generate a pair of multicopy vectors expressing KPC2 and SHV12 respectively. These vectors were transformed into BW25113 pspB to generate strains NB27273-CDY0033 (expressing KPC2) and NB27273-CDY0030 (expressing SHV12). The pBAD18-kan vector also contains the TEM promoter region and signal sequence, (but lacks any intact β-lactamase genes) and was transformed into BW25113 pspB using standard protocols to generate the control strain NB27273-CDY0026. […] Susceptibility Testing
(§4) Minimal Inhibitory Concentrations (MICs) were determined by the broth microdilution method in accordance with Clinical and Laboratories Institute (CLSI) guidelines. In brief, fresh overnight bacterial cultures were suspended in sterile saline, and adjusted to a 0.5 McFarland turbidity standard. Bacterial suspensions were then diluted in cation adjusted Mueller-Hinton Broth (MHB II; BBL) to yield a final inoculum of approximately 5×10^5 colony-forming units (CFU)/mL. A master plate of antibiotics was prepared at a concentration equivalent to hundred-fold the highest desired final concentration in 100% dimethyl sulfoxide (DMSO). The master antibiotic plate was then diluted by serial twofold dilution with a multichannel pipette. The resulting dilution series of compounds were diluted 1:10 with sterile water leading to a 10% DMSO final concentration.

[2] = tested on: E. coli NB27273-CDY0033 (KPC2); assay: MIC by broth microdilution, isogenic E. coli strain expressing KPC2; settings: Escherichia coli, read-out: Strain 2 MIC
Procedure: as §1, §2, §3, §4

[3] = tested on: E. coli NB27273-CDY0030 (SHV12); assay: MIC by broth microdilution, isogenic E. coli strain expressing SHV12; settings: Escherichia coli, read-out: Strain 3 MIC
Procedure: as §1, §2, §3, §4

E. coli strain 25922 = assay: MIC by broth microdilution, E. coli strain 25922; settings: Escherichia coli, 25922, E. coli strain 25922; read-out: Ec 25922 (MIC)
Outline: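 CLSI broth microdilution in cation-adjusted Mueller-Hinton broth, inoculum about 5×10^5 CFU/mL, 10% DMSO from the diluted series, 20 h at 35-37° C. MIC is the lowest concentration preventing visible growth, read by eye and at 600 nm.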

E. coli containing KPC-2 = assay: MIC by broth microdilution, E. coli containing KPC-2 (Ec KPC2 Iso); settings: Escherichia coli, read-out: Ec KPC2 Iso (MIC), E. coli containing KPC-2 (carbapenemase from Klebsiella pneumoniae)
Outline: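 Host E. coli BW25113 pspB carrying multicopy pBAD18-kan plasmid with constitutive TEM-promoter KPC-2 expression (periplasmic signal sequence); broth microdilution per CLSI in cation-adjusted Mueller-Hinton broth, inoculum ~5×10^5 CFU/mL, compounds twofold serially diluted from DMSO masters (10% DMSO in dilution series added).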

Structure (SMILES): N=C(NC1CCNCC1)c1ccc(OC[C@H](O/N=C(\C(=O)N[C@@H]2C(=O)N(S(=O)(=O)O)[C@@H]2Cn2cncn2)c2csc(N)n2)C(=O)O)cc1 [Example 31, (S)-2-(((Z)-(2-(((2R,3S)-2-((1H-1,2,4-triazol-1-yl)methyl)-4-oxo-1-sulfoazetidin-3-yl)amino)-1-(2-aminothiazol-4-yl)-2-oxoethylidene)amino)oxy)-3-(4-(N-(piperidin-4-yl)carbamimidoyl)-phenoxy)propanoic acid]
- MIC [1]: 0.125 µg/mL (≈ 0.177 µM)
- MIC [2]: 0.25 µg/mL (≈ 0.354 µM)
- MIC [3]: 0.5 µg/mL (≈ 0.708 µM)
- MIC (E. coli strain 25922): 0.25 µg/mL (≈ 0.354 µM)
- MIC (E. coli containing KPC-2): 0.25 µg/mL (≈ 0.354 µM)

Structure (SMILES): CC(C)(O/N=C(\C(=O)N[C@@H]1C(=O)N(S(=O)(=O)O)[C@@H]1Cn1nnc(CN)n1)c1csc(N)n1)C(=O)O [Example 4, 2-(((Z)-(2-(((2R,3S)-2-((5-(aminomethyl)-2H-tetrazol-2-yl)methyl)-4-oxo-1-sulfoazetidin-3-yl)amino)-1-(2-aminothiazol-4-yl)-2-oxoethylidene)amino)oxy)-2-methylpropanoic acid]
- MIC [1]: 0.5 µg/mL (≈ 0.939 µM)
- MIC [2]: 8 µg/mL (≈ 15 µM)
- MIC [3]: 2 µg/mL (≈ 3.76 µM)
- MIC (E. coli strain 25922): 1 µg/mL (≈ 1.88 µM)
- MIC (E. coli containing KPC-2): 8 µg/mL (≈ 15 µM)

Structure (SMILES): Nc1nc(/C(=N/OC2(C(=O)O)CC2)C(=O)N[C@@H]2C(=O)N(S(=O)(=O)O)[C@@H]2CN2CCOC2=O)cs1 [Example 22, 1-(((Z)-(1-(2-aminothiazol-4-yl)-2-oxo-2-(((3S,4R)-2-oxo-4-((2-oxooxazolidin-3-yl)methyl)-1-sulfoazetidin-3-yl)amino)ethylidene)amino)oxy)cyclopropanecarboxylic acid]
- MIC [1]: ≤ 0.06 µg/mL
- MIC [2]: 0.125 µg/mL (≈ 0.241 µM)
- MIC [3]: 0.5 µg/mL (≈ 0.964 µM)
- MIC (E. coli strain 25922): 0.25 µg/mL (≈ 0.482 µM)
- MIC (E. coli containing KPC-2): 0.125 µg/mL (≈ 0.241 µM)
